Measured values taken from patent publication US12528857B2, “Nutritionally-optimized collagen peptide” (Gelita AG, priority 2019, dated 2026).
Where no end group is shown, it is not given here. [ ]: non-standard residue; d: D form. Hyp = O=C(O)[C@@H]1C[C@@H](O)CN1

Columns and labels:
[1] = system: human dermal fibroblasts; test: Proteoglycan assay (Blyscan glycosaminoglycan assay): proteoglycan synthesis by dermal fibroblasts; assay type: cell-based; details: 0.5 mg/ml collagen peptide, stimulation for two weeks, photometric at 656 nm, FIG. 1B
Description: (§1) The human cells used were obtained from tebu-bio GmbH, Offenbach, Germany. The chondrocytes (Cat. No. 402-05a) or dermal fibroblasts (Cat. No. 106-05a) were first sown in 12-well culture plates and cultured at 37° C., 5% CO2 in Ham's F12 medium, to which 10% fetal calf serum, 20 U/ml penicillin-streptomycin and 50 μg/ml ascorbic acid were added. On every other day, the culture medium was replaced by new culture medium until the cells had reached 80% confluence. To investigate the influence of the collagen peptides according to the invention of SEQ ID NO: 7, 8, 9 and 10 on the biosynthesis of matrix proteins, the cell culture medium was then replaced by a special stimulation medium to which 0.5 mg/ml of the specific collagen peptides according to the invention were added.
The Blyscan glycosaminoglycan assay (Article No. 054B3000, 2019, tebu-bio, Offenbach, Germany, or Biocolor Ltd., UK) was used to determine proteoglycans. The biosynthesis of proteoglycans was determined after stimulating dermal fibroblasts for two weeks. According to the manufacturer's instructions, after discarding the culture medium, the cell layers were covered with 1 ml of papain extraction solution and incubated for three hours at 65° C. with vigorous shaking. The cell suspensions were then centrifuged (10,000 g, 10 min) and the supernatants were collected. After adding 1 ml of Blyscan dye solution and shaking (30 min), the supernatants were centrifuged again (12,000 rpm, 10 min) and then discarded. The isolated proteoglycan pellets were resuspended in 500 μl of dissociation solution. A photometric determination of the synthesized proteoglycan in 200 μl sample solution was carried out at a wavelength of 656 nm in comparison to untreated control experiments.

[2] = system: human dermal fibroblasts; test: Collagen assay (Sircol): collagen synthesis by dermal fibroblasts; assay type: cell-based; details: 0.5 mg/ml collagen peptide, stimulation for three weeks, photometric at 492 nm, FIG. 1A
Description: as §1
To investigate the collagen metabolism, the amount of newly synthesized collagen was determined after stimulating the cells with 0.5 mg/ml BCP for three weeks. The synthesized collagen was isolated using the Sircol assay (Article No. 054S5000, 2019, tebu-bio, Offenbach, Germany, or Biocolor Ltd., UK) according to the manufacturer's instructions. In brief, the culture medium was initially discarded and the adherent cell layers were digested with 0.1 mg pepsin solution in 0.5 M acetic acid at 4° C. overnight. The cell suspensions were neutralized by adding 100 μl of an acid-neutralizing reagent. The synthesized collagen was then separated off by adding 200 μl of an isolation and concentration solution with vigorous shaking at 4° C. overnight. After centrifugation (12,000 rpm, 10 min) and discarding the supernatant, the isolated collagen was resuspended in 1 ml of Sircol dye solution. After 30 minutes of shaking and another centrifugation, the collagen pellet was covered with 750 μl of cold acidic solid washing reagent. After another centrifugation, the supernatant was again discarded and the enriched collagen was taken up in 250 μl of alkaline solution. In each case 200 μl of the sample solutions were used for photometric quantification of the synthesized collagen. The absorbance was measured at a wavelength of 492 nm. The amount of collagen synthesized in each case was determined on the basis of standardized collagen solutions.

For “GL[P]GKMGVFGLTGPIGP[P]GPWGV[P]GHKGYLGPT (GL[Hyp]GKMGVFGLTGPIGP[Hyp]GPWGV[Hyp]GHKGYLGPT) [SEQ ID NO: 7]”, the “increase of synthesis of proteoglycans by dermal fibroblasts in comparison to untreated controls” value (“increase of synthesis of proteoglycans” for short) [1] was 26% and the “increased collagen synthesis by dermal fibroblasts compared to untreated controls” value (“increased collagen synthesis” below) [2] was 27%.

“GL[P]GKYGVHGLTGPLGP[P]GPMGI[P]GWKGFVGPT (GL[Hyp]GKYGVHGLTGPLGP[Hyp]GPMGI[Hyp]GWKGFVGPT) [SEQ ID NO: 8]” was tested, and the “increase of synthesis of proteoglycans” value [1] was 22% and the “increased collagen synthesis” value [2] was 22%.

With “GP[P]GPLGMKGL[P]GVWGPFGL[P]GTPGPHGITGYKGV [SEQ ID NO: 9]” the “increase of synthesis of proteoglycans” value [1] was 21% and the “increased collagen synthesis” value [2] was 21%.

In the case of “GP[P]GPVGTKGL[P]GFYGPLGI[P]GHPGPWGMLGTKGV [SEQ ID NO: 10]”, the “increase of synthesis of proteoglycans” value [1] is reported as 22% and the “increased collagen synthesis” value [2] is reported as 21%.
